Drawing on ChEMBL document CHEMBL1821658, “Synthesis, antimicrobial evaluation and QSAR analysis of novel nalidixic acid based 1,2,4-triazole derivatives” (2011), this text covers MIC90 and EC50 for 14 compounds.

≈ marks a conversion by molar mass, not a printed value.

What all share (assay type): functional
Test [1] deals with Pseudomonas aeruginosa. As to the kind of experiment: Antibacterial activity against Pseudomonas aeruginosa ATCC 9027 after 24 hrs by broth micro dilution assay. The conditions noted are these: ATCC 9027, 24 h.
Test [2] relates to Escherichia coli. As to the kind of experiment: Antibacterial activity against Escherichia coli ATCC 8739 after 24 hrs by broth micro dilution assay. Conditions: ATCC 8739, 24 h.
Test [3] has as its system Fusarium oxysporum. Put plainly: Antifungal activity against Fusarium oxysporum by food poison technique. The conditions noted are these: read-out: ED50 (the source's name).
Test [4] deals with Staphylococcus aureus. Put plainly: Antibacterial activity against Staphylococcus aureus ATCC 2937 after 24 hrs by broth micro dilution assay. Conditions: ATCC 2937, 24 h.
The subject of test [5] is Bacillus subtilis. As to the kind of experiment: Antibacterial activity against Bacillus subtilis ATCC 12711 after 24 hrs by broth micro dilution assay. The conditions noted are these: ATCC 12711, 24 h.
Test [6] deals with Aspergillus niger. As to the kind of experiment: Antifungal activity against Aspergillus niger by food poison technique. The conditions noted are these: read-out: ED50 (the source's name).
For test [7], the system named is Klebsiella pneumoniae. Put plainly: Antibacterial activity against Klebsiella pneumoniae ATCC 31488 after 24 hrs by broth micro dilution assay. Conditions: ATCC 31488, 24 h.

As usually defined, the MIC90 is the lowest concentration that inhibits either 90% of growth or 90% of the strains tested, depending on the study. Low values mean greater potency, high ones weaker potency. Take `CCn1cc(-c2nnc(S)n2/N=C/c2ccc(Cl)cc2Cl)c(=O)c2ccc(C)nc21`: the MIC90 in test [1] was found to be 63 mg/L (≈ 137 µM); in test [2] it was 250 mg/L (≈ 544 µM); in test [4], 125 mg/L (≈ 272 µM); in test [5], 125 mg/L (≈ 272 µM); in test [7], 250 mg/L (≈ 544 µM). The figures for the EC50 in test [3] and in test [6] were 103 mg/L (≈ 224 µM) and 502 mg/L (≈ 1090 µM), respectively.

Turning to `CCn1cc(-c2nnc(S)n2/N=C/c2c(Cl)cccc2Cl)c(=O)c2ccc(C)nc21`, the MIC90 in test [1] turned out to be 63 mg/L (≈ 137 µM); in test [2] it was 16 mg/L (≈ 34.8 µM); in test [4] it was 125 mg/L (≈ 272 µM); in test [5], 31 mg/L (≈ 67.5 µM); in test [7], 125 mg/L (≈ 272 µM). Also, the EC50 came out at 112 mg/L (≈ 245 µM) in test [3] and 101 mg/L (≈ 221 µM) in test [6].

As to `CCn1cc(-c2nnc3sc(-c4ccccc4)nn23)c(=O)c2ccc(C)nc21`, the MIC90 in test [1] turned out to be 63 mg/L (≈ 162 µM); in test [2] it was 63 mg/L (≈ 162 µM); in test [4], 63 mg/L (≈ 162 µM); in test [5], 125 mg/L (≈ 322 µM); in test [7], 125 mg/L (≈ 322 µM). The EC50 in test [3] was 103 mg/L (≈ 265 µM); in test [6], 79.6 mg/L (≈ 205 µM).

As for `CCn1cc(-c2nnc3sc(-c4ccccc4Cl)nn23)c(=O)c2ccc(C)nc21`, the MIC90 in test [1], in test [2], in test [4], in test [5] and in test [7] was 16 mg/L (≈ 37.8 µM) throughout. Besides, the results for the EC50 in test [3] and in test [6] were 86.6 mg/L (≈ 205 µM) and 75.5 mg/L (≈ 178 µM), respectively.

In the case of `CCn1cc(-c2nnc3sc(-c4cccc(Cl)c4)nn23)c(=O)c2ccc(C)nc21`, the MIC90 in test [1] was 63 mg/L (≈ 149 µM); in test [2] it was 63 mg/L (≈ 149 µM); in test [4] it was 63 mg/L (≈ 149 µM); in test [5] it was 31 mg/L (≈ 73.3 µM); in test [7] it was 63 mg/L (≈ 149 µM). Besides, the EC50 in test [3] stood at 103 mg/L (≈ 243 µM); in test [6], 144 mg/L (≈ 342 µM).

For the compound `CCn1cc(-c2nnc3sc(-c4ccc(Cl)cc4)nn23)c(=O)c2ccc(C)nc21`, the MIC90 in test [1] came to 125 mg/L (≈ 296 µM); in test [2] it was 63 mg/L (≈ 149 µM); in test [4] it was 63 mg/L (≈ 149 µM); in test [5], 63 mg/L (≈ 149 µM); in test [7], 125 mg/L (≈ 296 µM). The EC50 in test [3] is 121 mg/L (≈ 287 µM); in test [6] it was 514 mg/L (≈ 1210 µM).

For the compound `CCn1cc(-c2nnc3sc(-c4cccc([N+](=O)[O-])c4)nn23)c(=O)c2ccc(C)nc21`, the MIC90 in test [1] was 63 mg/L (≈ 145 µM); in test [2] it was 125 mg/L (≈ 288 µM); in test [4] it was 125 mg/L (≈ 288 µM); in test [5] it was 125 mg/L (≈ 288 µM); in test [7] it was 125 mg/L (≈ 288 µM). Further, the EC50 in test [3] was 148 mg/L (≈ 342 µM); in test [6], 71 mg/L (≈ 164 µM).

For the compound `CCn1cc(-c2nnc3sc(-c4cccc(Cl)c4Cl)nn23)c(=O)c2ccc(C)nc21`, the MIC90 was found to be 63 mg/L (≈ 138 µM) in test [1]; 31 mg/L (≈ 67.8 µM) in test [2]; 125 mg/L (≈ 273 µM) in test [4]; 63 mg/L (≈ 138 µM) in test [5]; 63 mg/L (≈ 138 µM) in test [7]. For the same compound, the EC50 in test [3] was determined as 96.9 mg/L (≈ 212 µM); in test [6] it was 109 mg/L (≈ 239 µM).

Consider `CCn1cc(-c2nnc3sc(S)nn23)c(=O)c2ccc(C)nc21`, for which the MIC90 is 31 mg/L (≈ 90 µM) in test [1]; 63 mg/L (≈ 183 µM) in test [2]; 250 mg/L (≈ 726 µM) in test [4]; 125 mg/L (≈ 363 µM) in test [5]; 63 mg/L (≈ 183 µM) in test [7]. Also, the EC50 was determined as 267 mg/L (≈ 775 µM) in test [3] and 92.7 mg/L (≈ 269 µM) in test [6].

Regarding `CCn1cc(-c2nnc(S)n2NC(C)=O)c(=O)c2ccc(C)nc21`, the MIC90 in test [1] is 250 mg/L (≈ 726 µM); in test [2] it was 63 mg/L (≈ 183 µM); in test [4] it was 63 mg/L (≈ 183 µM); in test [5], 63 mg/L (≈ 183 µM); in test [7] it was 31 mg/L (≈ 90 µM). Moreover, the EC50 amounted to 166 mg/L (≈ 481 µM) in test [3] and 111 mg/L (≈ 322 µM) in test [6].

With `CCn1cc(-c2nnc(S)n2NC(=O)c2ccccc2)c(=O)c2ccc(C)nc21`, the MIC90 in test [1], in test [2], in test [4], in test [5] and in test [7] was 63 mg/L (≈ 155 µM) throughout. Besides, the EC50 stood at 110 mg/L (≈ 270 µM) in test [3] and 88.5 mg/L (≈ 218 µM) in test [6].

For the compound `CCn1cc(-c2nnc3n2N=C(c2ccccc2)CS3)c(=O)c2ccc(C)nc21`, the MIC90 in test [1] is 125 mg/L (≈ 311 µM); in test [2], 125 mg/L (≈ 311 µM); in test [4], 63 mg/L (≈ 157 µM); in test [5], 125 mg/L (≈ 311 µM); in test [7], 63 mg/L (≈ 157 µM). Further, the EC50 in test [3] is 144 mg/L (≈ 359 µM); in test [6], 148 mg/L (≈ 369 µM).

As to `CCn1cc(-c2nnc3sc(=O)c(=O)[nH]n23)c(=O)c2ccc(C)nc21`, the MIC90 in test [1] turned out to be 125 mg/L (≈ 351 µM); in test [2], 125 mg/L (≈ 351 µM); in test [4] it was 250 mg/L (≈ 702 µM); in test [5] it was 125 mg/L (≈ 351 µM); in test [7], 63 mg/L (≈ 177 µM). Moreover, the EC50 was 164 mg/L (≈ 461 µM) in test [3] and 348 mg/L (≈ 975 µM) in test [6].

For `CCn1cc(-c2nnc(S)[nH]2)c(=O)c2ccc(C)nc21`, the MIC90 in test [1] stood at 125 mg/L (≈ 435 µM); in test [2], 63 mg/L (≈ 219 µM); in test [4], 63 mg/L (≈ 219 µM); in test [5], 31 mg/L (≈ 108 µM); in test [7], 63 mg/L (≈ 219 µM). Besides, the EC50 in test [3] was found to be 111 mg/L (≈ 387 µM); in test [6] it was 76 mg/L (≈ 265 µM).
